Consider 6 molecules from patent US10000566B2, “Anti-CD33 antibodies and methods for treatment of acute myeloid leukemia using the same” (IMMUNOGEN INC., priority 2002, dated 2018).

Entries after “also recorded” stand apart in the source; their conditions may differ.

In one series the test system is large HL-60 tumors. As to the kind of experiment: Large HL-60 tumor xenograft model in SCID mice. Format: in vivo. To be noted: for toxicity of higher drug doses: not shown; for effect on tumor growth: standard chemotherapeutic agents, tumor volume >400 mm^3. On the procedure:
(§1) Subcutaneous tumor model—HL-60 human promyelocytic leukemia cells (5×10^6 cells in 0.1 mL) were subcutaneously inoculated into the right flank of female SCID mice. Mice were treated by intravenous injection into a lateral tail vein starting when tumors reached 100 mm^3 in size (400 mm^3 in large tumor model). Tumor size and mouse body weight were measured twice per week. Survival model—HL-60 cells (5×10^6 cells in 0.1 mL) were intravenously injected into the lateral tail vein of female SCID mice. Eleven days after tumor cell injection treatment was started. Mice were checked every day for moribund, tumor mass, or death. Body weight was measured twice per week.
Tumors were allowed to grow to a tumor volume of >400 mm^3 prior to the initiation of treatment. In addition, a comparison of the activity of My9-6-DM1 with standard chemotherapeutic drugs was conducted. […]

The test system of series [1] is HL-60 cells injected intravenously. The experiment in a line: HL-60 cell mouse survival model. Format: in vivo, SCID mice. To be noted: treatment starting 11 days after cell injection. On the procedure: FIGS. 24A & B show anti-tumor efficacy of My9-6-DM1 compared with Gentuzumab ozogamicin and standard chemotherapy in an HL-60 survival model. HL-60 cells were intravenously injected into SCID mice. Indicated treatments were started 11 days following injection of cells. Treatments were i.v. daily ×5 except for Gentuzumab ozogamicin (Q4D×3).
as §1
While the efficacy of My9-6-DM1 in the tumor xenograft model is striking, it is also of interest to look at the activity of the conjugate in a mouse survival model where HL-60 cells are injected directly into a mouse tail vein. In this model, control mice die between 30 and 50 days after cell injection. […] However, even in this model, standard chemotherapy provided no significant survival enhancement (FIG. 24B).

The test system of series [2] is human HL-60 tumor cell xenografts. The experiment in a line: Subcutaneous HL-60 tumor xenograft model in SCID mice. Format: in vivo. The procedure:
as §1
The efficacy of My9-6-DM1 in vivo was determined using SCID mice bearing human HL-60 tumor cell xenografts. HL-60 cells were injected subcutaneously and tumors were allowed to grow to an average size of 100 mm^3. Dosage is expressed as mg antibody in the conjugate, which corresponds to a DM1 dose of approximately 15 μg DM1 per mg of antibody. Tumor volume was measured as an indication of treatment efficacy and mouse body weight was monitored to indicate toxicity due to treatment.

The target in series [3] is T1, CD33 on CD33-positive U-937 cells (Homo sapiens, UniProt P20138).
T1 construct: endogenous in cells; host or cells: U-937 human histiocytic lymphoma cell line (ATCC CRL-1953.2)
T1 sequence (P20138 18-364): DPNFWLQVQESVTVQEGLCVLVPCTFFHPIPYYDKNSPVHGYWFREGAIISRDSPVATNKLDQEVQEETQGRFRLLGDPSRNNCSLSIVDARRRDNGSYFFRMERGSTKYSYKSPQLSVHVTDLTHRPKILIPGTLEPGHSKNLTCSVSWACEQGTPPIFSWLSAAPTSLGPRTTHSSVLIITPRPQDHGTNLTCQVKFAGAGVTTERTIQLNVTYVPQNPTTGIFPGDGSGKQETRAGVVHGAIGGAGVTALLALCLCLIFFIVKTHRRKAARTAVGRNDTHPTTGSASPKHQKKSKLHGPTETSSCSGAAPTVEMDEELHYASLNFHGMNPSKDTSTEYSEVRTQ
As to the kind of experiment: Competition binding of 125I-labeled muMy9-6 to U-937 cells. The procedure:
The My9-6 antibody has further been functionally characterized and shown to bind with high affinity to CD33 on the surface of CD33-positive U-937 cells (FIG. 1). ^125I-labeled My9-6 binds to U-937 cells and it is competed off the cells by unlabeled My9-6 and the previously characterized anti-CD33 antibody My9 (BioGenex, cat. no. 267M).
To further ascertain its specificity for binding to the CD33 antigen, a competition binding experiment was performed between labeled muMy9-6 and the commercially available anti-CD33 antibody My9. The binding experiment was performed using the method described by Goldmacher et al. (1989, J. Cell. Physiol. 141, 222-234). Murine My9-6 antibody was radiolabeled with ^125I using the Iodo-gen technique (Fraker, P. J. and Speck, J. C., 1978, Biochem. Biophys. Res. Commun. 80, 849-857). A constant amount (3×10^−9 M) of ^125I-labeled muMy9-6 was mixed with increasing concentrations of non-radioactive antibody, either unlabeled muMy9-6 or unlabelled My9, and the mixtures were incubated with cells (1×10^6 cells per sample) at 4° C. for 30 min. […] The cell pellet was then removed by cutting the centrifuge tubes at the oil interface and was used to measure the cell-associated radioactivity on a gamma-counter (model RIAgamma 1274 from LKB). The cell-associated radioactivity measured was […] against the concentrations of the unlabelled, competing antibodies. […]

For series [4] the following is noted: in vivo; cited from earlier work.
The target of series [5] is T2, CD33 on HL-60 membranes or whole cells (Homo sapiens, UniProt P20138).
T2 construct: endogenous in cells; host or cells: HL-60 human leukemic cell line (whole cells; plasma membranes prepared from HL-60)
T2 sequence (P20138 18-364): as above
The experiment in a line: Direct binding assays on HL-60 membranes and HL-60 whole cells. The procedure:
HL-60 cells were harvested from T75 flasks (NUNCLON™, cat. no. 153732), and centrifuged at about 300×g for five minutes in an Omnifuge RT tabletop centrifuge (Haereus Separations, Germany), at 4° C. The cells were resuspended at a density of 3×10^6 cells per mL in FACS buffer, comprised of 2% (v/v) goat serum (Sigma Chemical Co., St Louis, Mo.) in MEM Alpha Medium, supplemented with L-glutamine (Life Technologies, Grand Island, N.Y.). Using a multichannel pipetor, 3×10^5 cells were added to wells of a Falcon 96-well round bottom plate (cat. no. 3077) and then placed on ice. Using a Falcon 96-well flexible assay plate (cat. no. 353911), eleven twofold serial dilutions of each test or control article were prepared in duplicate in FACS buffer, from a starting concentration of 2×10^−8 M. Then, 100 μl of either test or control article was mixed with the cells. Control wells only received FACS buffer. The plate was incubated on ice for one hour, and then centrifuged for five minutes at 300× g, in a refrigerated centrifuge. Reagents were removed from the plate wells by quick inversion over a waste beaker containing 10% bleach. […] The assay plate was then analyzed on a FACScan flow cytometer interfaced with an automated 96-well sampling device (Becton Dickinson, Mountain View, Calif.). […]

On to `Nc1ccn([C@@H]2O[C@H](CO)[C@@H](O)[C@@H]2O)c(=O)n1` [Ara-C], for which, in the series on large HL-60 tumors, the “toxicity of higher drug doses” value was “profoundly toxic” and the “effect on tumor growth” value is given as “little effect on tumor growth”.
Taken in the same sequence, the figures for `CC(=O)[C@]1(O)Cc2c(O)c3c(c(O)c2[C@@H](O[C@H]2C[C@H](N)[C@H](O)[C@H](C)O2)C1)C(=O)c1ccccc1C3=O` [idarubicin] were “profoundly toxic” and “little effect on tumor growth”.
On to `COc1cc2cc(c1Cl)N(C)C(=O)C[C@H](OC(=O)[C@H](C)N(C)C(C)=O)[C@]1(C)O[C@H]1[C@H](C)[C@@H]1C[C@@](O)(NC(=O)O1)[C@H](OC)/C=C/C=C(\C)C2` [maytansine, reference compound], for which, in series [1], the effect on survival result is on record as “significant impact on mouse survival” and the “mice that died shortly after the start of treatment” value was 2 of 8. Moreover, the “mice that died two days after treatment” value in series [2] (350 μg/kg daily for 5 days) is “Three of 6”. The “delay in tumor growth” value in series [2] (350 μg/kg daily for 5 days, remaining 3 mice) is “approximately 10 days”.
Consider “My9-6: murine anti-CD33 monoclonal antibody, IgG1 kappa, hybridoma ATCC PTA-4786”, for which the effect on survival result in series [1] is listed as “modest increase in survival”. In series [3] (3×10^−9 M 125I-muMy9-6, U-937 cells, 4° C., 30 min), the “competition binding curves against 125I-labeled muMy9-6” value is on record as “very similar competition binding curves”. The “binding affinity / avidity for CD33” value in series [3] (CD33-positive U-937 cells) was “very similar binding avidities; also recorded: high affinity”. Moreover, the “effect on HL-60 tumor growth compared to vehicle control” value in series [2] (antibody alone, dose not stated) is “no effect on HL-60 tumor growth”. Moreover, in series [2] (antibody alone, even at 50 mg/kg), the “effect on tumor cell growth” value was “no effect on tumor cell growth”. In series [2] (unconjugated antibody 23 mg/kg daily for 5 days), the “effect on tumor growth” value was “no affect on tumor growth”.
Consider calicheamicin, for which the “toxicity in pre-clinical models” value in series [4] was “hepatotoxicity”.

B1: V1.0: most human resurfaced version of My9-6, all ten human surface residues (antibody, V domains shown)
VH: QVQLQQPGAEVVKPGASVKMSCKASGYTFTSYYIHWIKQTPGQGLEWVGVIYPGNDDISYNQKFQGKATLTADKSSTTAYMQLSSLTSEDSAVYYCAREVRLRYFDVWGQGTTVTVSS
VL: EIVLTQSPGSLAVSPGERVTMSCKSSQSVFFSSSQKNYLAWYQQIPGQSPRLLIYWASTRESGVPDRFTGSGSGTDFTLTISSVQPEDLAIYYCHQYLSSRTFGQGTKLEIKR
For the molecule B1, the “binding affinity relative to wild type” value in series [5] (HL-60 membranes and whole cells) is on record as “near wild type binding affinities”. Besides, in series [5] (HL-60 membranes or whole cells, numbers only in FIG. 17), the “KD value compared with murine My9-6” value was “fall within the experimental error of the KD value of murine My9-6”.
